Source: ChEMBL document CHEMBL3784996, “Copper-catalyzed three-component synthesis of aminonaphthoquinone-sulfonylamidine conjugates and in vitro evaluation of their antiproliferative activity” (Bioorg Med Chem Lett, 2016)
pIC50: −log10 of the molar value.

Assays:
[1] = tested on: A549; assay: Cytotoxicity against human A549 cells after 48 hrs by MTT assay; assay type: functional, cell-based; conditions: A549, 48 h
[2] = tested on: HEK293; assay: Cytotoxicity against HEK293 cells after 48 hrs by MTT assay; assay type: cell-based; conditions: Homo sapiens, HEK293, 48 h
[3] = Cytotoxicity against human DU145 cells after 48 hrs by MTT assay; assay type: functional, cell-based; conditions: DU-145, 48 h
[4] = tested on: MCF7; assay: Cytotoxicity against human MCF7 cells after 48 hrs by MTT assay; assay type: functional, cell-based; conditions: MCF7, 48 h
[5] = tested on: HeLa; assay: Cytotoxicity against human HeLa cells after 48 hrs by MTT assay; assay type: functional, cell-based
[6] = tested on: MCF7; assay: Induction of cell cycle arrest in human MCF7 cells assessed as accumulation at G0/G1 phase at 2.5 uM after 48 hrs by propidium iodide staining based flow cytometric analysis (reference value: 62.95 %); assay type: functional
[7] = tested on: MCF7; assay: Induction of cell cycle arrest in human MCF7 cells assessed as accumulation at sub G1 phase at 5 uM after 48 hrs by propidium iodide staining based flow cytometric analysis (reference value: 2.58 %); assay type: functional
[8] = tested on: MCF7; assay: Induction of cell cycle arrest in human MCF7 cells assessed as accumulation at sub G1 phase at 2.5 uM after 48 hrs by propidium iodide staining based flow cytometric analysis (reference value: 2.58 %); assay type: functional
[9] = tested on: MCF7; assay: Induction of cell cycle arrest in human MCF7 cells assessed as accumulation at G2/M phase at 5 uM after 48 hrs by propidium iodide staining based flow cytometric analysis (reference value: 28.45 %); assay type: functional
[10] = tested on: MCF7; assay: Induction of cell cycle arrest in human MCF7 cells assessed as accumulation at S phase at 2.5 uM after 48 hrs by propidium iodide staining based flow cytometric analysis (reference value: 5.04 %); assay type: functional
[11] = tested on: MCF7; assay: Induction of cell cycle arrest in human MCF7 cells assessed as accumulation at G0/G1 phase at 5 uM after 48 hrs by propidium iodide staining based flow cytometric analysis (reference value: 62.95 %); assay type: functional
[12] = tested on: MCF7; assay: Induction of cell cycle arrest in human MCF7 cells assessed as accumulation at G2/M phase at 2.5 uM after 48 hrs by propidium iodide staining based flow cytometric analysis (reference value: 28.45 %); assay type: functional
[13] = tested on: MCF7; assay: Induction of cell cycle arrest in human MCF7 cells assessed as accumulation at S phase at 5 uM after 48 hrs by propidium iodide staining based flow cytometric analysis (reference value: 5.04 %); assay type: functional

| Compound | pIC50 [1] | pIC50 [2] | pIC50 [3] | pIC50 [4] | pIC50 [5] | Activity [6] [%] | Activity [7] [%] | Activity [8] [%] | Activity [9] [%] | Activity [10] [%] | Activity [11] [%] | Activity [12] [%] | Activity [13] [%] |
| --- | --- | --- | --- | --- | --- | --- | --- | --- | --- | --- | --- | --- | --- |
| C#CCNC1=CC(=O)c2ccccc2C1=O | 4.33 | 4.11 | 4.40 | 4.62 | 4.51 |  |  |  |  |  |  |  |  |
| Cc1ccc(S(=O)(=O)/N=C(/CCNC2=CC(=O)c3ccccc3C2=O)Nc2cc(F)c(F)c(F)c2)cc1 | 4.99 | 4.08 | 4.90 | 5.18 | 5.07 |  |  |  |  |  |  |  |  |
| Cc1ccc(S(=O)(=O)/N=C(/CCNC2=CC(=O)c3ccccc3C2=O)Nc2ccc(F)c(F)c2)cc1 | 4.78 | 4.26 | 4.89 | 5.03 | 5.06 |  |  |  |  |  |  |  |  |
| Cc1ccc(S(=O)(=O)/N=C(/CCNC2=CC(=O)c3ccccc3C2=O)Nc2ccccc2[N+](=O)[O-])cc1 | 5.30 | 4.16 | 5.12 | 5.51 | 5.48 | 63.91 | 2.6 | 2.5 | 23.6 | 3.11 | 68.18 | 27.47 | 3.09 |
| Cc1ccc(S(=O)(=O)/N=C(/CCNC2=CC(=O)c3ccccc3C2=O)Nc2ccccc2I)cc1 | 4.61 | 4.31 | 4.93 | 4.81 | 4.72 |  |  |  |  |  |  |  |  |
| COc1ccc(N/C(CCNC2=CC(=O)C(C)=C(C)C2=O)=N\S(=O)(=O)c2ccc(C)cc2)cc1OC | 4.81 | 4.10 | 4.85 | 5.06 | 4.98 |  |  |  |  |  |  |  |  |
| Cc1ccc(S(=O)(=O)/N=C(\N)CCNC2=CC(=O)c3ccccc3C2=O)cc1 | 4.57 | 4.20 | 4.51 | 4.73 | 4.61 |  |  |  |  |  |  |  |  |
| Cc1ccc(S(=O)(=O)/N=C(/CCNC2=CC(=O)c3ccccc3C2=O)Nc2ccc(F)cc2)cc1 | 5.03 | 4.26 | 4.91 | 5.37 | 5.23 |  |  |  |  |  |  |  |  |
| COc1ccc(N/C(CCNC2=CC(=O)c3ccccc3C2=O)=N\S(=O)(=O)c2ccc(C)cc2)cc1 | 4.59 | 4.45 | 4.92 | 5.22 | 5.12 |  |  |  |  |  |  |  |  |
| Cc1ccc(S(=O)(=O)/N=C(/CCNC2=CC(=O)c3ccccc3C2=O)Nc2cccc(C(F)(F)F)c2)cc1 | 4.11 | 4.04 | 4.08 | 4.05 | 4.11 |  |  |  |  |  |  |  |  |
| Cc1ccc(S(=O)(=O)/N=C(/CCNC2=CC(=O)c3ccccc3C2=O)Nc2ccc(Cl)cc2Cl)cc1 | 4.48 | 4.38 | 4.73 | 4.77 | 4.69 |  |  |  |  |  |  |  |  |
| COc1ccc(N/C(CCNC2=C(Br)C(=O)c3ccccc3C2=O)=N\S(=O)(=O)c2ccc(C)cc2)cc1OC | 4.76 | 4.45 | 4.53 | 5.18 | 5.27 |  |  |  |  |  |  |  |  |
| Cc1ccc(S(=O)(=O)/N=C(/CCNC2=CC(=O)c3ccccc3C2=O)NCCc2c[nH]c3ccccc23)cc1 | 4.77 | 4.37 | 4.55 | 5.11 | 5.03 |  |  |  |  |  |  |  |  |
| Cc1ccc(S(=O)(=O)/N=C(/CCNC2=CC(=O)c3ccccc3C2=O)NC2CCCCC2)cc1 | 4.83 | 4.30 | 4.78 | 5.12 | 5.01 |  |  |  |  |  |  |  |  |
| COc1ccc(N/C(CCNC2=CC(=O)c3ccccc3C2=O)=N\S(=O)(=O)c2ccc(C(C)(C)C)cc2)cc1OC | 4.79 | 4.21 | 4.84 | 5.06 | 4.94 |  |  |  |  |  |  |  |  |
| COc1cc(N/C(CCNC2=CC(=O)c3ccccc3C2=O)=N\S(=O)(=O)c2ccc(C)cc2)cc(OC)c1OC | 5.10 | 4.12 | 5.03 | 5.52 | 5.47 | 64.17 | 3.01 | 1.86 | 5.23 | 4.14 | 84.55 | 27.51 | 5.19 |
| Cc1ccc(S(=O)(=O)/N=C(/CCNC2=CC(=O)c3ccccc3C2=O)Nc2ccc(Cl)cc2)cc1 | 4.52 | 4.18 | 4.49 | 5.15 | 4.87 |  |  |  |  |  |  |  |  |
| Cc1ccc(S(=O)(=O)/N=C(/CCNC2=CC(=O)c3ccccc3C2=O)NCc2ccccc2)cc1 | 5.13 | 4.10 | 5.04 | 5.44 | 5.40 |  |  |  |  |  |  |  |  |
| Cc1ccc(S(=O)(=O)/N=C(/CCNC2=CC(=O)c3ccccc3C2=O)Nc2cccc(C)c2)cc1 | 4.73 | 4.25 | 4.99 | 5.09 | 5.04 |  |  |  |  |  |  |  |  |
| COc1ccc(N/C(CCNC2=CC(=O)c3ccccc3C2=O)=N\S(=O)(=O)c2ccc(C)cc2)c(OC)c1 | 3.90 | 4.08 | 4.17 | 4.52 | 4.17 |  |  |  |  |  |  |  |  |
| Cc1ccc(S(=O)(=O)/N=C(/CCNC2=CC(=O)c3ccccc3C2=O)NC(C)C)cc1 | 4.35 | 4.14 | 4.55 | 4.78 | 4.52 |  |  |  |  |  |  |  |  |
| COc1ccc(N/C(CCNC2=CC(=O)c3ccccc3C2=O)=N\S(=O)(=O)c2ccc(C)cc2)cc1OC | 4.69 | 4.22 | 4.75 | 4.91 | 4.84 |  |  |  |  |  |  |  |  |
| COc1cccc2c1C(=O)c1c(O)c3c(c(O)c1C2=O)C[C@@](O)(C(=O)CO)C[C@@H]3O[C@H]1C[C@H](N)[C@H](O)[C@H](C)O1 [DOXORUBICIN] | 5.63 |  | 5.97 |  | 5.80 |  |  |  |  |  |  |  |  |
